Reference: article PMC9631887 (ACS Omega, 2022)

Tests used:
PAMPA-GIT = settings: for classification / experimental fraction absorption: PAMPA-GIT; for classification: fraction absorption classification; for Papp at 8 h, 500 μM: PAMPA
[1] = QC standards; ref Zhu et al.[29]; cited from earlier work

classification (PAMPA-GIT) | Papp at 8 h, 500 μM (PAMPA-GIT) | experimental fraction absorption (PAMPA-GIT) | SMILES | classification (PAMPA-BBB) | literature fraction absorption [1]
low (Low, 0–29% Fa) |  |  | CC(C)NCC(O)COc1ccc(CC(N)=O)cc1 (stereo not shown) [atenolol] |  | 
 |  |  | Cn1c(=O)c2c(ncn2C)n(C)c1=O [caffeine] | BBB– (Pe values <1.57 were classified as nonpermeable (BBB−)) | 
 |  |  | CO/N=C(\C(=O)N[C@@H]1C(=O)N2C(C(=O)O)=C(CSc3nc(=O)c(=O)[nH]n3C)CS[C@H]12)c1csc(N)n1 [ceftriaxone] |  | 1%
high (High, 70–100% Fa) | 27.9 ×10⁻⁶ cm/s | 100.00% | O=c1ccc2ccccc2o1 [coumarin] |  | 
high (High, 70–100% Fa) | 14 ×10⁻⁶ cm/s | 100.00% | O=C(O)Cc1ccccc1Nc1c(Cl)cccc1Cl [diclofenac] |  | 100%
 |  |  | CCn1cc(C(=O)O)c(=O)c2cc(F)c(N3CCNCC3)nc21 [enoxacin] | BBB– (Pe values <1.57 were classified as nonpermeable (BBB−)) | 
 |  | 100.00% | C[C@]12CCC(=O)C=C1CC[C@@H]1[C@@H]2[C@@H](O)C[C@@]2(C)[C@H]1CC[C@]2(O)C(=O)CO [hydrocortisone] |  | 
intermediate (Intermediate, 30–69% Fa) |  | 51.39% | CCn1cc(C(=O)O)c(=O)c2cc(F)c(N3CCNCC3)cc21 [norfloxacin] |  | 
intermediate (Intermediate, 30–69% Fa) |  | 49.75% | CNC(=C[N+](=O)[O-])NCCSCc1ccc(CN(C)C)o1 [ranitidine] |  | 
